Laboratory results from patent publication US20020137929A1, “1 - (3-heterocyclylphenyl) isothiourea, -isourea, -guanidine and -amidine herbicidal agents” (Intellectual Property Department, BASF Aktiengesellschaft, priority 1998, published 2002).

Key:
SETVI (Foxtail, Green) = experiment: Postemergence herbicidal evaluation; type: in vivo, Setaria viridis
Summary of the method: (§1)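 Each compound, dispersed in an acetone/water mix (50/50) carrying 0.5% TWEEN 20, is nozzle-sprayed at 40 psi on approximately two-week-old seedlings at about 0.0156–0.500 kg/ha. Plants are assessed 4–5 weeks afterward on a 0–9 scale relative to control; duplicate tests are averaged.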

GALAP (Galium) [1] = experiment: Preemergence herbicidal evaluation; type: in vivo, Galium aparine; conditions: rated 4-5 weeks after treatment
Summary of the method: (§2)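 Steps: mix seeds into potting soil; plant atop ~1 inch soil; spray compound in aqueous acetone (~0.0156-0.500 kg/ha equivalent); maintain in greenhouse with watering; rate visually 0-9 versus control at 4-5 weeks.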

CYPSE (Flatsedge) [2] = experiment: Preemergence weed control under flooded paddy conditions; type: in vivo, Cyperus serotinus; conditions: rated 3-4 weeks after treatment
Summary of the method: (§3)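 Seeds or propagules sown in silt loam kept flooded 1.5-3 cm; compounds in 50/50 acetone/water pipetted into flood water at about 0.0313 to 0.500 kg/ha. Greenhouse; visual 0-9 rating versus untreated control 3-4 weeks after treatment.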

[3] = test system: CHEAL (Lambsquarters, Common); experiment: Postemergence herbicidal evaluation; type: in vivo, Chenopodium album
Summary of the method: as §1

CYPSE (Flatsedge) [4] = experiment: Postemergence weed control under flooded paddy conditions; type: in vivo, Cyperus serotinus; conditions: postemergence weeds, rated 3 to 4 weeks after treatment
Summary of the method: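 Herbicidal effect is judged by eye on a 0–9 scale versus control, 3–4 weeks after dosing. Dosing is into flood water kept 1.5–3 cm over the soil, at about 0.0313–0.500 kg/ha in aqueous/acetone 50/50 v/v, on 3–5 cm weeds and 1.5–2.5-leaf rice seedlings.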

CYPIR (Rice Flatsedge) = experiment: Preemergence weed control under flooded paddy conditions; type: in vivo, Cyperus iria; conditions: rated 3-4 weeks after treatment
Summary of the method: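 Ratings on a 0-9 visual scale cover stand, vigor, malformation, size, chlorosis and overall appearance relative to a control, taken three to four weeks post-treatment. Application was into flood water over freshly sown silt loam at roughly 0.0313 to 0.500 kg/ha.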

CASOB (Sicklepod) [5] = experiment: Postemergence herbicidal evaluation; type: in vivo, Cassia obtusifolia
Summary of the method: as §1

CASOB (Sicklepod) [6] = experiment: Preemergence herbicidal evaluation; type: in vivo, Cassia obtusifolia; conditions: rated 4-5 weeks after treatment
Summary of the method: as §2

ECHCG (Barnyardgrass) = experiment: Postemergence herbicidal evaluation; type: in vivo, Echinochloa crus-galli
Summary of the method: as §1

[7] = test system: SAGPY (Arrowhead (Pygmaea)); experiment: Preemergence weed control under flooded paddy conditions; type: in vivo, Sagittaria pygmaea; conditions: rated 3-4 weeks after treatment
Summary of the method: as §3

ZEAMX (Corn, Field) = experiment: Preemergence herbicidal evaluation; type: in vivo, Zea mays; conditions: rated 4-5 weeks after treatment
Summary of the method: as §2

ORYSAT (Rice, Tebonnet) = experiment: Postemergence herbicidal evaluation; type: in vivo, Oryza sativa, (L.) Tebonnet
Summary of the method: as §1

[8] = test system: GLXMAW (Soybean, Williams); experiment: Postemergence herbicidal evaluation; type: in vivo, Glycine max, (L.) Merr. cv Williams
Summary of the method: as §1

AMBEL (Ragweed, Common) = experiment: Postemergence herbicidal evaluation; type: in vivo, Ambrosia artemisifolia
Summary of the method: as §1

GALAP (Galium) [9] = experiment: Postemergence herbicidal evaluation; type: in vivo, Galium aparine
Summary of the method: as §1

For `CCOC(=O)CN1C(=O)C(CC(=O)OC(C)C)SC1=Nc1cc(-n2c(=O)cc(C(F)(F)F)n(C)c2=O)c(F)cc1Cl` (stereo not drawn) [Compound 60, 2-{{2-Chloro-5-[3,6-dihydro-3-methyl-2,6-dioxo-4-(trifluoromethyl)-1(2H)-pyrimidinyl]-4-fluoro-phenyl}imino}-4-oxo-3,5-thiazolidinediacetic acid, 3-ethyl isopropyl ester], the “Postemergence herbicidal rating SETVI” value (SETVI (Foxtail, Green); Rate 0.0158 kg/ha) was 0.0, the “Postemergence herbicidal rating SETVI” value (SETVI (Foxtail, Green); Rate 0.0315 kg/ha) was 4.0 and the “Postemergence herbicidal rating SETVI” value (SETVI (Foxtail, Green); Rate 0.0630 kg/ha) was 5.0. The “Preemergence herbicidal rating GALAP” value (GALAP (Galium) [1]; rate 0.0156 kg/ha) was 0.0, the “Preemergence herbicidal rating GALAP” value (GALAP (Galium) [1]; rate 0.0313 kg/ha) was 0.0 and the “Preemergence herbicidal rating GALAP” value (GALAP (Galium) [1]; rate 0.0625 kg/ha) was 0.0. The “Preemergence herbicidal rating GALAP” value (GALAP (Galium) [1]; rate 0.1250 kg/ha) was 0.0, the “Preemergence herbicidal rating GALAP” value (GALAP (Galium) [1]; rate 0.2500 kg/ha) was 0.0 and the “CYPSE herbicidal effect rating” value (CYPSE (Flatsedge) [2]; 0.0313 kg/ha) was 2.0. For the same compound, the “CYPSE herbicidal effect rating” value (CYPSE (Flatsedge) [2]; 0.0625 kg/ha) was 2.0, the “CYPSE herbicidal effect rating” value (CYPSE (Flatsedge) [2]; 0.1250 kg/ha) was 4.0 and the “CYPSE herbicidal effect rating” value (CYPSE (Flatsedge) [2]; 0.2500 kg/ha) was 4.0. For the same compound, the “Postemergence herbicidal rating CHEAL” value ([3]; Rate 0.0158 kg/ha) was 4.0, the “Postemergence herbicidal rating CHEAL” value ([3]; Rate 0.0315 kg/ha) was 4.0 and the “Postemergence herbicidal rating CHEAL” value ([3]; Rate 0.0630 kg/ha) was 9.0. For the same compound, the “Herbicidal rating CYPSE” value (CYPSE (Flatsedge) [4]; Rate 0.0313 kg/ha) was 2.0, the “Herbicidal rating CYPSE” value (CYPSE (Flatsedge) [4]; Rate 0.0625 kg/ha) was 2.0 and the “Herbicidal rating CYPSE” value (CYPSE (Flatsedge) [4]; Rate 0.1250 kg/ha) was 4.0. The “Herbicidal rating CYPSE” value (CYPSE (Flatsedge) [4]; Rate 0.2500 kg/ha) was 4.0, the “CYPIR herbicidal effect rating” value (CYPIR (Rice Flatsedge); 0.0313 kg/ha) was 3.0 and the “CYPIR herbicidal effect rating” value (CYPIR (Rice Flatsedge); 0.0625 kg/ha) was 3.0. For the same compound, the “CYPIR herbicidal effect rating” value (CYPIR (Rice Flatsedge); 0.1250 kg/ha) was 6.0, the “CYPIR herbicidal effect rating” value (CYPIR (Rice Flatsedge); 0.2500 kg/ha) was 6.0 and the “Postemergence herbicidal rating CASOB” value (CASOB (Sicklepod) [5]; Rate 0.0158 kg/ha) was 0.0. For the same compound, the “Postemergence herbicidal rating CASOB” value (CASOB (Sicklepod) [5]; Rate 0.0315 kg/ha) was 0.0, the “Postemergence herbicidal rating CASOB” value (CASOB (Sicklepod) [5]; Rate 0.0630 kg/ha) was 3.0 and the “Preemergence herbicidal rating CASOB” value (CASOB (Sicklepod) [6]; rate 0.0156 kg/ha) was 0.0. The “Preemergence herbicidal rating CASOB” value (CASOB (Sicklepod) [6]; rate 0.0313 kg/ha) was 0.0, the “Preemergence herbicidal rating CASOB” value (CASOB (Sicklepod) [6]; rate 0.0625 kg/ha) was 0.0 and the “Preemergence herbicidal rating CASOB” value (CASOB (Sicklepod) [6]; rate 0.1250 kg/ha) was 1.0. For the same compound, the “Preemergence herbicidal rating CASOB” value (CASOB (Sicklepod) [6]; rate 0.2500 kg/ha) was 5.5, the “Preemergence herbicidal rating CASOB” value (CASOB (Sicklepod) [6]; rate 0.5000 kg/ha) was 4.0 and the “Postemergence herbicidal rating ECHCG” value (ECHCG (Barnyardgrass); Rate 0.0158 kg/ha) was 0.0. For the same compound, the “Postemergence herbicidal rating ECHCG” value (ECHCG (Barnyardgrass); Rate 0.0315 kg/ha) was 0.0, the “Postemergence herbicidal rating ECHCG” value (ECHCG (Barnyardgrass); Rate 0.0630 kg/ha) was 0.0 and the “SAGPY herbicidal effect rating” value ([7]; 0.0313 kg/ha) was 3.0. The “SAGPY herbicidal effect rating” value ([7]; 0.0625 kg/ha) was 4.0, the “SAGPY herbicidal effect rating” value ([7]; 0.1250 kg/ha) was 9.0 and the “SAGPY herbicidal effect rating” value ([7]; 0.2500 kg/ha) was 9.0. The “Preemergence herbicidal rating ZEAMX” value (ZEAMX (Corn, Field); rate 0.0156 kg/ha) was 0.0, the “Preemergence herbicidal rating ZEAMX” value (ZEAMX (Corn, Field); rate 0.0313 kg/ha) was 0.0 and the “Preemergence herbicidal rating ZEAMX” value (ZEAMX (Corn, Field); rate 0.0625 kg/ha) was 0.5. For the same compound, the “Preemergence herbicidal rating ZEAMX” value (ZEAMX (Corn, Field); rate 0.1250 kg/ha) was 1.5, the “Preemergence herbicidal rating ZEAMX” value (ZEAMX (Corn, Field); rate 0.2500 kg/ha) was 3.0 and the “Preemergence herbicidal rating ZEAMX” value (ZEAMX (Corn, Field); rate 0.5000 kg/ha) was 8.0. The “Postemergence herbicidal rating ORYSAT” value (ORYSAT (Rice, Tebonnet); Rate 0.0158 kg/ha) was 3.0, the “Postemergence herbicidal rating ORYSAT” value (ORYSAT (Rice, Tebonnet); Rate 0.0315 kg/ha) was 3.0 and the “Postemergence herbicidal rating ORYSAT” value (ORYSAT (Rice, Tebonnet); Rate 0.0630 kg/ha) was 5.0. The “Postemergence herbicidal rating GLXMAW” value ([8]; Rate 0.0158 kg/ha) was 6.5, the “Postemergence herbicidal rating GLXMAW” value ([8]; Rate 0.0315 kg/ha) was 6.5 and the “Postemergence herbicidal rating GLXMAW” value ([8]; Rate 0.0630 kg/ha) was 7.0. For the same compound, the “Postemergence herbicidal rating AMBEL” value (AMBEL (Ragweed, Common); Rate 0.0158 kg/ha) was 7.0, the “Postemergence herbicidal rating AMBEL” value (AMBEL (Ragweed, Common); Rate 0.0315 kg/ha) was 9.0 and the “Postemergence herbicidal rating AMBEL” value (AMBEL (Ragweed, Common); Rate 0.0630 kg/ha) was 9.0. The “Postemergence herbicidal rating GALAP” value (GALAP (Galium) [9]; Rate 0.0158 kg/ha) was 0.0, the “Postemergence herbicidal rating GALAP” value (GALAP (Galium) [9]; Rate 0.0315 kg/ha) was 2.0 and the “Postemergence herbicidal rating GALAP” value (GALAP (Galium) [9]; Rate 0.0630 kg/ha) was 5.0.
